Structures can show the parent of a compound that is named as a salt.
How the values were obtained:
[1] = target: Human LATS2 catalytic domain (Homo sapiens (Human), UniProt Q9NRM7); experiment: LATS2 High ATP HTRF Assay; assay type: biochemical; conditions: no asterisk: LATS2 High ATP HTRF Assay, 5000 μM ATP, 0.05 nM LATS2
In short: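 Phosphorylation of 0.5 μM STK S1 peptide at high ATP (5000 μM), 2 h at room temperature, by 0.05 nM LATS2 kinase domain/Mob1b complex after 10 min compound pre-incubation. Ki derived from HTRF-based IC50 (4-parameter logistic) by Cheng-Prusoff, ATP Km 105 μM.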

[2] = test system: TAZ nuclear translocation in SW1990 cells; experiment: TAZ Nuclear Translocation Assay; assay type: cell-based; conditions: Homo sapiens, 4 hours
In short: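 SW1990 cells in RPMI1640/10% FBS treated with compounds for 4 h at 37 °C, then fixed and immunostained for TAZ with Hoechst nuclear counterstain and imaged by high-content imaging. Read-out is the nuclear/cytoplasmic-ring fluorescence ratio, normalized to DMSO (0%) and an inhibitor control (100%); EC50 from four-parameter fit.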

[3] = test system: pYAP(Ser127) in SW1990 cells; experiment: pYAP(Ser127) HTRF Cellular Assay; assay type: cell-based; conditions: Homo sapiens, 4 hours
Description: The SW1990 cells were seeded at 8000 cells/well by adding 30 μL/well of cells in RPMI1640, 10% FBS, 2 mM glutamine culture media to a 384-well plate (Corning 3570). The cells were incubated overnight at 37° C. Next day, compounds were directly added to the cells using the Echo Liquid Handler (Labcyte), incubate at 37° C. for 4 hours.
The HTRF assay was performed using the Cisbio phospho-YAP Ser127 HTRF kit (64YAPPEG). The media was aspirated from the cells. 20 μL of 1X lysis/blocking buffer was added to the cells, gently shake for 30 minutes at room temperature. 1 μL of the premixed antibody solution (1:40 dilution of each phospho-YAP Eu Cryptate antibody and phospho-YAP d2 antibody) was added to the cells. The plate was sealed and incubated overnight at room temperature. The HTRF (665 nm/620 nm) signal was read on the PHERAstar reader (BMG Labtech). The EC50 values were calculated by fitting the % inhibition with a nonlinear four-parameter logistical equation.

[4] = target: Human LATS1 catalytic domain (Homo sapiens (Human), UniProt O95835); experiment: LATS1 High ATP HTRF Assay; assay type: biochemical; conditions: 5000 μM ATP, 0.025 nM LATS1; Cheng-Prusoff
Description: Human LATS1 catalytic domain which contains the amino acids E590-V1130 (accession NP_004681) was purified in-house. The LATS1 catalytic domain was co-purified with Mob1b (accession NP_775739). The LATS1 biochemical assay was performed using the HTRF KinEASE-STK S1 Kit (Cisbio, Cat #62ST1PEC), following the protocol from the manufacturer. Compounds were dispensed by the Echo Liquid Handler (Labcyte) into a white 384-well plate (PerkinElmer, Cat #6008289). 3 μL of 2×LATS1 enzyme solution was added to the compounds, followed by a 10 minute incubation at room temperature. Then, 3 μL of 2×ATP and STK S1 peptide solution was added to initiate the enzyme reaction for one hour at room temperature. The final condition of the reaction was 0.025 nM LATS1, 5000 μM ATP, 0.5 μM STK S1 peptide in 50 mM HEPES pH 7.2, 10 mM MgCl2, 0.1% BGG, 0.005% Brij-35, 1 mM DTT. The reaction was quenched and the HTRF signal was read.

Sequence of Human LATS1 catalytic domain (O95835 590-1130): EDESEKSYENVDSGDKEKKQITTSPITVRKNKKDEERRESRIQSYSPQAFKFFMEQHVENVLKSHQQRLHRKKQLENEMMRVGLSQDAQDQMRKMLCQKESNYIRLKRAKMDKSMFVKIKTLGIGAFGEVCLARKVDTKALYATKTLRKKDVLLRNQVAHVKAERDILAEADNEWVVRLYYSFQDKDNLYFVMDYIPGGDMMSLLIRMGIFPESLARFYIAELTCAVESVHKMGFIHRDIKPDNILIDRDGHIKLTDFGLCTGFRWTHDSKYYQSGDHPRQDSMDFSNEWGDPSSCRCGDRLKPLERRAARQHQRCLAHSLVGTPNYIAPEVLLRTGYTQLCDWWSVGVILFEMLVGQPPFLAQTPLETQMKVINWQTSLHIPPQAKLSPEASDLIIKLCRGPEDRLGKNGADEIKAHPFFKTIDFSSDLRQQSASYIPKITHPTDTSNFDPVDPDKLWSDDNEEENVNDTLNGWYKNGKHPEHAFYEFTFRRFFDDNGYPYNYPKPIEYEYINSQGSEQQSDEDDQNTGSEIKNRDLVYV
Sequence of Human LATS1 catalytic domain (Q7L9L4 whole entry partner, the tested form may be a part): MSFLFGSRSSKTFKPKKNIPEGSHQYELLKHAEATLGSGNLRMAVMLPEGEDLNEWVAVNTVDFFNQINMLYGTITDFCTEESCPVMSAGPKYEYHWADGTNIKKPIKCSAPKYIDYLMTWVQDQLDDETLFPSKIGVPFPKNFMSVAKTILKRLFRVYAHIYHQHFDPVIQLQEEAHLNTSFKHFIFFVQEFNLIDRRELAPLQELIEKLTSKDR
Sequence of Human LATS2 catalytic domain (Q9NRM7 553-1088): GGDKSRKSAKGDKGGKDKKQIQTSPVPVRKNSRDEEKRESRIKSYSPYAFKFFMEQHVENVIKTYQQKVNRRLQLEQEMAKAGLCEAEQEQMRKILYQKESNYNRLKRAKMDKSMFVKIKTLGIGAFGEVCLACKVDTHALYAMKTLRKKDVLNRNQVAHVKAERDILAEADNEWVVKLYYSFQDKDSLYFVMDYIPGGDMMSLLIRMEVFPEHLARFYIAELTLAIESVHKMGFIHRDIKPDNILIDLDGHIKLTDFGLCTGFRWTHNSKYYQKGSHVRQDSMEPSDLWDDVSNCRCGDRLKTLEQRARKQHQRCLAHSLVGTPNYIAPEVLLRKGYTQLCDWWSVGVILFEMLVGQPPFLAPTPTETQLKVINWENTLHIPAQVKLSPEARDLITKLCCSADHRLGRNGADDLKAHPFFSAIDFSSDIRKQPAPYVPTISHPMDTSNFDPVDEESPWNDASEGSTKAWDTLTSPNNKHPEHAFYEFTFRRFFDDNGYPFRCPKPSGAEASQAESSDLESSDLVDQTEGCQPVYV
Sequence of Human LATS2 catalytic domain (Q7L9L4 whole entry partner, the tested form may be a part): as the sequence (Q7L9L4 whole entry partner, the tested form may be a part) above

SMILES | Ki [1] | EC50 [2] | EC50 [3] | Ki [4]
c1cc(-c2nc(N3CCC4(CC3)CCN([C@@H]3CCOC3)C4)c3ccncc3n2)ccn1 (single isomer, unassigned) [Compound 112] | 1.07 nM | 700 nM | 940 nM | –
c1cc(-c2nc(N3CCC4(CC3)CCN([C@H]3CCOC3)C4)c3ccncc3n2)ccn1 (single isomer, unassigned) [Compound 113] | 0.82 nM | 660 nM | 1100 nM | –
C[C@H](O)CN1CCC2(CCN(c3nc(-c4ccncc4)nc4cnccc34)CC2)C1 (single isomer, unassigned) [Compound 115] | 0.13 nM | 300 nM | 310 nM | 0.0063 nM
C[C@@H](O)CN1CCC2(CCN(c3nc(-c4ccncc4)nc4cnccc34)CC2)C1 (single isomer, unassigned) [Compound 116] | 0.13 nM | 310 nM | 320 nM | 0.0079 nM
O[C@@H]1CCC[C@H]1N1CCC2(CCN(c3nc(-c4ccncc4)nc4cnccc34)CC2)C1 (single isomer, unassigned) [Compound 128] | 0.073 nM | 300 nM | 360 nM | 0.0058 nM
O[C@H]1CCC[C@@H]1N1CCC2(CCN(c3nc(-c4ccncc4)nc4cnccc34)CC2)C1 (single isomer, unassigned) [Compound 129] | 0.076 nM | 140 nM | 290 nM | 0.0074 nM
OC[C@@H]1CC2(CCN(c3nc(-c4ccncc4)nc4cnccc34)CC2)CN1 (single isomer, unassigned) [Compound 197] | 0.059 nM | 1300 nM | 1400 nM | –
OC[C@H]1CC2(CCN(c3nc(-c4ccncc4)nc4cnccc34)CC2)CN1 (single isomer, unassigned) [Compound 198] | 0.041 nM | 1400 nM | 2400 nM | –
c1cc(-c2nc(N3CCC4(CCNC4)CC3)c3ccncc3n2)ccn1 [Compound 101, 2-(pyridin-4-yl)-4-(2,8-diazaspiro[4.5]decan-8-yl)pyrido[3,4-d]pyrimidine] | 0.38 nM | 990 nM | 1100 nM | 0.051 nM
CN1CCC2(CCN(c3nc(-c4ccncc4)nc4cnccc34)CC2)C1 [Compound 102, 4-(2-methyl-2,8-diazaspiro[4.5]decan-8-yl)-2-(pyridin-4-yl)pyrido[3,4-d]pyrimidine] | 0.98 nM | 350 nM | 430 nM | 0.011 nM
FC(F)(F)CN1CCC2(CCN(c3nc(-c4ccncc4)nc4cnccc34)CC2)C1 [Compound 105, 2-(pyridin-4-yl)-4-(2-(2,2,2-trifluoroethyl)-2,8-diazaspiro[4.5]decan-8-yl)pyrido[3,4-d]pyrimidine] | 3.08 nM | 2300 nM | 5800 nM | –
c1cc(-c2nc(N3CCC4(CC3)CCN(C3CCCC3)C4)c3ccncc3n2)ccn1 [Compound 106, 4-(2-cyclopentyl-2,8-diazaspiro[4.5]decan-8-yl)-2-(pyridin-4-yl)pyrido[3,4-d]pyrimidine formate] | 0.053 nM | 300 nM | 230 nM | –
CC(C)(CO)N1CCC2(CCN(c3nc(-c4ccncc4)nc4cnccc34)CC2)C1 [Compound 107, 2-methyl-2-(8-(2-(pyridin-4-yl)pyrido[3,4-d]pyrimidin-4-yl)-2,8-diazaspiro[4.5]decan-2-yl)propan-1-ol] | 0.62 nM | 420 nM | 290 nM | –
OC1CC(N2CCC3(CCN(c4nc(-c5ccncc5)nc5cnccc45)CC3)C2)C1 (stereo not drawn) [Compound 108, 3-(8-(2-(pyridin-4-yl)pyrido[3,4-d]pyrimidin-4-yl)-2,8-diazaspiro[4.5]decan-2-yl)cyclobutanol] | 0.31 nM | 380 nM | 580 nM | –
OCCN1CCC2(CCN(c3nc(-c4ccncc4)nc4cnccc34)CC2)C1 [Compound 114, 2-(8-(2-(pyridin-4-yl)pyrido[3,4-d]pyrimidin-4-yl)-2,8-diazaspiro[4.5]decan-2-yl)ethanol] | 0.31 nM | 610 nM | 550 nM | –
OCCCN1CCC2(CCN(c3nc(-c4ccncc4)nc4cnccc34)CC2)C1 [Compound 120, 3-(8-(2-(pyridin-4-yl)pyrido[3,4-d]pyrimidin-4-yl)-2,8-diazaspiro[4.5]decan-2-yl)propan-1-ol] | 0.17 nM | 370 nM | 360 nM | –
COCCN1CCC2(CCN(c3nc(-c4ccncc4)nc4cnccc34)CC2)C1 [Compound 121, 4-(2-(2-methoxyethyl)-2,8-diazaspiro[4.5]decan-8-yl)-2-(pyridin-4-yl)pyrido[3,4-d]pyrimidine] | 0.8 nM | 300 nM | 630 nM | –
FC(F)CN1CCC2(CCN(c3nc(-c4ccncc4)nc4cnccc34)CC2)C1 [Compound 127, 4-(2-(2,2-difluoroethyl)-2,8-diazaspiro[4.5]decan-8-yl)-2-(pyridin-4-yl)pyrido[3,4-d]pyrimidine] | 0.55 nM | 1300 nM | 3400 nM | –
c1cc(-c2nc(N3CCC4(CC3)CCN(C3CCC3)C4)c3ccncc3n2)ccn1 [Compound 131, 4-(2-cyclobutyl-2,8-diazaspiro[4.5]decan-8-yl)-2-(pyridin-4-yl)pyrido[3,4-d]pyrimidine] | 0.29 nM | 280 nM | 490 nM | –
c1ccc(CN2CCC3(CCN(c4nc(-c5ccncc5)nc5cnccc45)CC3)C2)cc1 [Compound 133, 4-(2-benzyl-2,8-diazaspiro[4.5]decan-8-yl)-2-(pyridin-4-yl)pyrido[3,4-d]pyrimidine] | 0.069 nM | 400 nM | 250 nM | –
CCN1CCC2(CCN(c3nc(-c4ccncc4)nc4cnccc34)CC2)C1 [Compound 138, 4-(2-ethyl-2,8-diazaspiro[4.5]decan-8-yl)-2-(pyridin-4-yl)pyrido[3,4-d]pyrimidine] | 0.61 nM | 590 nM | 890 nM | –
Cc1n[nH]cc1-c1nc(N2CCC3(CCN(C)C3)CC2)c2ccncc2n1 [Compound 143, 2-(3-methyl-1H-pyrazol-4-yl)-4-(2-methyl-2,8-diazaspiro[4.5]decan-8-yl)pyrido[3,4-d]pyrimidine] | 0.15 nM | 700 nM | 1000 nM | –
CCN1CCC2(CCN(c3nc(-c4cn[nH]c4C)nc4cnccc34)CC2)C1 [Compound 151, 4-(2-ethyl-2,8-diazaspiro[4.5]decan-8-yl)-2-(5-methyl-1H-pyrazol-4-yl)pyrido[3,4-d]pyrimidine] | 0.09 nM | 470 nM | 390 nM | –
CC1CC2(CCN(c3nc(-c4ccncc4)nc4cnccc34)CC2)CN1 (stereo not drawn) [Compound 167, 4-(3-methyl-2,8-diazaspiro[4.5]decan-8-yl)-2-(pyridin-4-yl)pyrido[3,4-d]pyrimidine] | 0.58 nM | 540 nM | 300 nM | –
Cc1n[nH]cc1-c1nc(N2CCC3(CCN(C)C3)CC2)c2cc(Cc3ccccn3)ncc2n1 [Example 238, 2-(3-methyl-1H-pyrazol-4-yl)-4-(2-methyl-2,8-diazaspiro[4.5]decan-8-yl)-6-(pyridin-2-ylmethyl)pyrido[3,4-d]pyrimidine] | 0.25 nM | 2300 nM | – | –
OCc1cncc2nc(-c3ccncc3)nc(N3CCC4(CCNC4)CC3)c12 [Example 239, (2-(Pyridin-4-yl)-4-(2,8-diazaspiro[4.5]decan-8-yl)pyrido[3,4-d]pyrimidin-5-yl)methanol] | 4.9 nM | > 10000 nM | – | –
CC(C)c1cncc2nc(-c3ccncc3)nc(N3CCC4(CCNC4)CC3)c12 [Example 240, 5-Isopropyl-2-(pyridin-4-yl)-4-(2,8-diazaspiro[4.5]decan-8-yl)pyrido[3,4-d]pyrimidine] | 2 nM | 3200 nM | – | –

From patent US20240174696A1, “2,8-DIAZASPIRO[4.5]DECANE COMPOUNDS” (Genentech, Inc., priority 2021, published 2024)
